{
  "source": "patent US20030203963A1",
  "about": "“Antimicrobial agent” (priority 2001, published 2003)",
  "key": {"[1]": {"tested_on": "Cl. sporogenes (strains 1.221; Campden; ABC20; 4.440)", "assay": "Sensitivity testing for Clostridium species in cooked meat medium", "type": "cell-based, Clostridium sporogenes", "conditions": "highest level tested 2000 ppm APP20010215, anaerobically at 37° C.", "protocol": "Stock solutions of APP215 (0.5, 1 and 2%) were prepared and filter-sterilised. Cooked meat medium (CMM, Oxoid) was prepared by distributing 1 g of the medium to individual test tubes, which were then filled with 8.9 ml water. After autoclaving 100 μl of the APP stock solutions were added, to give final concentrations of 0, 500, […] and 2000 ppm APP. The tests were inoculated with […] of Clostridium spores, to give an inoculum level of ca. 10 cfu/ml. The tubes were overlaid with 3 ml of 2% agar to maintain anaerobicity. The tests were incubated at 37° C., and examined daily for signs of growth (turbidity, gas production)."}, "Lb. sake A10": {"tested_on": "Lb. sake A10", "assay": "Bioscreen growth inhibition test", "type": "cell-based, Lactobacillus sake", "conditions": "for APP level causing significant inhibition / APP level causing total inhibition: BS010411, 24 h at 30° C.", "protocol": "(§1) For broth cultures and Bioscreen testing most bacteria were grown in Brain Heart Infusion (BHI, Oxoid, pH 7.4). Lactobacillus sake A10 was grown in de Man, Rogosa, Sharpe medium ([…], Oxoid). Yeasts were grown in Sabouraud Liquid medium (SLM, Oxoid). Most bacteria were cultured at 30° C. Lactic acid bacteria were grown on solid medium in enriched CO2 atmosphere. Clostridium species were grown in Reinforced Clostridial Medium (RCM) at 37° C. anaerobically. Brochothrix thermosphacta fungi and yeasts were grown at 25° C. Fungi were cultured on Malt Extract Agar (MEA, Oxoid).\n(§2) An automated Microbiology Reader Bioscreen C was used to measure growth curves of the strains in the presence and absence of APP. The Bioscreen C measures the development of turbidity (i.e. growth) kinetically by vertical photometry in 200 wells of a honeycomb microtitre plate, simultaneously. The system consists of a Bioscreen C analyser, which is an incubator and measurement unit, integrated with a PC, software (BioLink v 5.30), printer and a ‘Honeycomb 2’ cuvette multiwell plate. Growth curve data can be analysed within the BioLink software or exported to programs such as Excel.\nBroth culture media were dispensed in 270 μl volumes into the wells as directed. Serial dilutions of a filter-sterilised APP stock solution were then dispensed into the same wells, as appropriate. The wells were inoculated with 30 μl of an appropriately diluted overnight broth culture or spore suspension, to give a final inoculum level of […]. The tests were incubated in the Bioscreen C for either 24 h at 30° C., or 72 h at 25° C. (depending on the micro-organism under investigation) with readings taken every 20 minutes after the trays were shaken. After the incubation period was complete the data were exported to Excel for analysis."}, "S. cerevisiae 9763": {"tested_on": "S. cerevisiae 9763", "assay": "Chicken soup trial at 20° C.", "type": "cell-based, Saccharomyces cerevisiae", "conditions": "2000 ppm; chicken soup at 20° C., TCSM010430, APP20010213", "from_the_text": "A local supermarket brand of cream of chicken soup was used as a model food system. 600 g packs were purchased from the local supermarket. This was a ‘fresh home-made type’ of soup that was stored in the chill cabinet, with a short shelf life. It was chosen because it is a rich, nutritious food system containing a range of food components including meat, dairy and vegetable.\nIngredients were labelled as: chicken stock (water, duck fat, chicken, salt, flavourings, yeast extracts, pork gelatine, glucose syrup, vegetable concentrate, milk protein, sugar, malto-dextrin, vegetable oil, citric acid, lactose, chicken fat), ilk, chicken (9%), cream (8%), onion, potato, vegetable oil, modified maize starch, wheat flour, lemon juice, salt, white pepper. pH 5.912. Protein: 3.3%; carbohydrate: 4.7%; fat: 7.2%; fibre: 0.2%; sodium: 0.1%\nFor the test the soup was mixed 2:1 in water (to facilitate sampling and mixing) and sterilised by autoclaving at 121° C. for 15 minutes. For each experiment the pH of the soup was recorded; this was between pH 5.79-5.88.\nFor TCS010430/20 (incubated at 20° C.) samples were prepared in 18.8 g quantities, to which 1 g of a suitable filter-sterilised APP stock solution was added and an appropriately diluted 0.2 ml inoculum. Great care was again taken to ensure homogeneous distribution of the APP and micro-organisms. […]"}, "[2]": {"tested_on": "Br. thermosphacta CRA7883", "assay": "Bioscreen growth inhibition test", "type": "cell-based, Brochothrix thermosphacta", "conditions": "BS010420, 72 h at 25° C., APP20010213", "protocol": "as §1, §2\nBroth culture media were dispensed in 270 μl volumes into the wells as directed. […] (depending on the micro-organism under investigation) with readings taken every 20 minutes after the trays were shaken. […]"}, "L. monocytogenes 272": {"tested_on": "L. monocytogenes 272", "assay": "Test in cooked minced beef slurry", "type": "cell-based, Listeria monocytogenes", "protocol": "1 kg of minced beef, purchased from the local butcher, was mixed with 1 litre of BHI. 200 g portion of this meat slurry was autoclaved. When the meat had cooled, the pH was recorded (pH 6.24), and each pot was inoculated with 2.0 ml of 10^5 spores or cells and the meat re-mixed thoroughly. Each inoculated 200 g pot was distributed as 3×50 g portions. To each pot 1 ml of SDW, 5% or 10% APP (Batch No. APP20010215) was added, and the meat was again mixed thoroughly. An initial viable count was performed, the meat was incubated at 8° C. and sampled twice weekly. The pH of the cooked minced beef slurry was 6.24."}},
  "data": [
    {"smiles": "O=C1CC(CO)OC=C1O", "note": "(centres unmarked) [APP, Ascopyrone P]", "values": [
      {"measurement": "Growth inhibition", "setting": "[1]", "value": "No growth inhibition"},
      {"measurement": "APP level causing significant inhibition", "setting": "Lb. sake A10; APP20010213", "value": 250, "unit": "ppm"},
      {"measurement": "APP level causing total inhibition", "setting": "Lb. sake A10; APP20010213", "value": 500, "unit": "ppm"},
      {"measurement": "APP level causing significant inhibition", "setting": "Lb. sake A10; APP20010215", "value": 250, "unit": "ppm"},
      {"measurement": "APP level causing total inhibition", "setting": "Lb. sake A10; APP20010215", "value": 500, "unit": "ppm"},
      {"measurement": "Total inhibition (effect on growth of target organism by 2000 ppm APP)", "setting": "Lb. sake A10; Lab media at optimum temperature", "value": "Lb. sake"},
      {"measurement": "Effect on growth", "setting": "S. cerevisiae 9763", "value": "No effect with 2000 ppm"},
      {"measurement": "APP level causing significant inhibition", "setting": "[2]", "value": 2000, "unit": "ppm"},
      {"measurement": "APP level causing total inhibition", "setting": "[2]", "value": 4000, "unit": "ppm"},
      {"measurement": "Effect on growth", "setting": "L. monocytogenes 272; 2000 ppm, minced beef slurry at 8° C., pH 6.24, TCM010619", "value": "No significant inhibition by 2000 ppm"},
      {"measurement": "No inhibition (effect on growth of target organism by 2000 ppm APP)", "setting": "L. monocytogenes 272; Cooked minced beef slurry at 8° C. pH 6.24, organism printed in brackets", "value": "(L. monocytogenes)"}
    ]}
  ]
}
